Laboratory results published in ChEMBL document CHEMBL1129671, “Substituted (pyrroloamino)pyridines: potential agents for the treatment of Alzheimer's disease” (J Med Chem, 1996).
pIC50: −log10 of the molar value.

Legend:
Mus musculus [1] = experiment: Evaluated for the prevention of TBZ ptosis by intraperitoneal administration in mice; type: functional; settings: ip
[2] = target: T1, Muscarinic acetylcholine receptor M1 (Rattus norvegicus, UniProt P08482); experiment: Compound was tested for inhibition of [3H]pirenzepine binding against Muscarinic acetylcholine receptor M1 from rat cortical membranes using in vitro cholinergic receptor binding assay.; type: cell membranes, Membrane
T1 sequence (P08482 whole entry): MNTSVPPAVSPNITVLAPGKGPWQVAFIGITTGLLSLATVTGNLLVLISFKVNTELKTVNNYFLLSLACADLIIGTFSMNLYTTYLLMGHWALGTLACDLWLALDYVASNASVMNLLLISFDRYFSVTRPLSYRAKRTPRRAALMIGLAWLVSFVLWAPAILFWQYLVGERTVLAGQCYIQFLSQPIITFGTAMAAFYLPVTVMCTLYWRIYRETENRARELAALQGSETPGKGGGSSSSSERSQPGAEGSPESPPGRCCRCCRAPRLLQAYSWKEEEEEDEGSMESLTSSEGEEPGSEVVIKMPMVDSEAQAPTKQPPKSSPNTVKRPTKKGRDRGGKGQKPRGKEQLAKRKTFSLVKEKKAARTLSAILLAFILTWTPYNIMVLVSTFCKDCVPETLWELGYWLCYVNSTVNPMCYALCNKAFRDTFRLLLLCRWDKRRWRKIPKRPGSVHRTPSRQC

Mus musculus [3] = experiment: Antagonistic activity against scopolamine-induced behavioral deficits in mice by subcutaneous administration at a concentration of 1.25 mg/kg; type: functional
[4] = target: T2, Adrenergic receptor alpha-2 (Rattus norvegicus, UniProt P22086+P19328+P22909); experiment: Compound was tested for inhibition of [3H]yohimbine against Alpha-2 adrenergic receptor from rat cortical membranes using in vitro adrenergic receptor binding assay.; type: cell membranes, Membrane
T2 sequence (P22086 whole entry): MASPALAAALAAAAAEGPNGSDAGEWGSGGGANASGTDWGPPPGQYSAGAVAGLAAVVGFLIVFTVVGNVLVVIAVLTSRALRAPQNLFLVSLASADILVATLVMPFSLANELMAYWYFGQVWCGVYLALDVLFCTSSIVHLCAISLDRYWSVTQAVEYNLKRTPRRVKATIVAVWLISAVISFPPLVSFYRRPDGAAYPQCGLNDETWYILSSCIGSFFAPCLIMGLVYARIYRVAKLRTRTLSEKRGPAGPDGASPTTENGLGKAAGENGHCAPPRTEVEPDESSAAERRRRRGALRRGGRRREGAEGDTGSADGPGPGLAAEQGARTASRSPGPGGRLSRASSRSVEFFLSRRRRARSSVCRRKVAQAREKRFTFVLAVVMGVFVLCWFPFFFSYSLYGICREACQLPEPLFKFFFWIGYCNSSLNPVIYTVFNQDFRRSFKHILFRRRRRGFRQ
T2 sequence (P19328 whole entry): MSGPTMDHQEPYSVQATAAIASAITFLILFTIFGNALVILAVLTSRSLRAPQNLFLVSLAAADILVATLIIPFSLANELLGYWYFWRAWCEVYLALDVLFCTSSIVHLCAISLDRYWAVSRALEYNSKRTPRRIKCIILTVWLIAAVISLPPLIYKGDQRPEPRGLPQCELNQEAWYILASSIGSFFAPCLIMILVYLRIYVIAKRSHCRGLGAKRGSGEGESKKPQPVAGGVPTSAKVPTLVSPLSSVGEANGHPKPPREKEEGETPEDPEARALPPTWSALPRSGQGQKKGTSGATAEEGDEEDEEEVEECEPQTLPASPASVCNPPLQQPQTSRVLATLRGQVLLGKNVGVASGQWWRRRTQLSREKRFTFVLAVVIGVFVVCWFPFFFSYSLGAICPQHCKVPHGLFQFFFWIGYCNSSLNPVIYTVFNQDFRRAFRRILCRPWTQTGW
T2 sequence (P22909 whole entry): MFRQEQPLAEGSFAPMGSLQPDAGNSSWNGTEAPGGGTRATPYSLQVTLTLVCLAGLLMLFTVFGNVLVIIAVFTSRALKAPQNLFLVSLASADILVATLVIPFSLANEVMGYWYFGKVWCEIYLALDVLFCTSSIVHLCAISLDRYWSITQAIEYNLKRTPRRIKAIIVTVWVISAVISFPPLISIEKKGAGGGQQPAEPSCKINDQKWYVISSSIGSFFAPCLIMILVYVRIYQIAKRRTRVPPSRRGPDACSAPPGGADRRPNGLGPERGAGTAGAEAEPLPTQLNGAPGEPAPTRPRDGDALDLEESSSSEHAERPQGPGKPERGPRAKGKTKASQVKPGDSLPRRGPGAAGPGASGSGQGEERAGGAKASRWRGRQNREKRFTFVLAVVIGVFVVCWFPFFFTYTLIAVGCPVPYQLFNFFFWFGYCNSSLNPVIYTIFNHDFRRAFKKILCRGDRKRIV

Mus musculus [5] = experiment: Antagonistic activity against scopolamine-induced behavioral deficits in mice by subcutaneous administration at a concentration of 0.16 mg/kg; type: functional
Mus musculus [6] = experiment: Antagonistic activity against scopolamine-induced behavioral deficits in mice by subcutaneous administration at a concentration of 0.31 mg/kg; type: functional
Rattus norvegicus [7] = species on record: Rattus norvegicus; experiment: Compound was tested for inhibition of [3H]dopamine against rat striatum using in vitro biogenic amine uptake assay using rat brain synaptosomes.; type: functional
Acetylcholinesterase = target: T3, Acetylcholinesterase (Rattus norvegicus, UniProt P37136); experiment: In vitro inhibition of Acetylcholinesterase from rat striatum
T3 sequence (P37136 whole entry): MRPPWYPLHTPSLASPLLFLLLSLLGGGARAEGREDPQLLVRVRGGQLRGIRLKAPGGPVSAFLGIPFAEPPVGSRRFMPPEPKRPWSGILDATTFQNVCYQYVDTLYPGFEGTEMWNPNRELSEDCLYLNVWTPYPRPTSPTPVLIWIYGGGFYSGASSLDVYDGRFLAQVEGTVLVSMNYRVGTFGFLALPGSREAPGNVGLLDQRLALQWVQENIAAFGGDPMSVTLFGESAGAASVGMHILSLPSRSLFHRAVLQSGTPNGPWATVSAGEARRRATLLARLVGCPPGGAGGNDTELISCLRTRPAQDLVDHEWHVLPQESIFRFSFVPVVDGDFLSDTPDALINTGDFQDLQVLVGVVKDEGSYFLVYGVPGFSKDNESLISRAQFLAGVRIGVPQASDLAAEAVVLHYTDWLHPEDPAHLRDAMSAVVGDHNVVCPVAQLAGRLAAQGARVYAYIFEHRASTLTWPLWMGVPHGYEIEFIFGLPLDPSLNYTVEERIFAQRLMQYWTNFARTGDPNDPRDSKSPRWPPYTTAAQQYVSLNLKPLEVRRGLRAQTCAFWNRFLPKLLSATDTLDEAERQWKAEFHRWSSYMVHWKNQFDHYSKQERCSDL

Mus musculus [8] = experiment: Antagonistic activity against scopolamine-induced behavioral deficits in mice by subcutaneous administration at a concentration of 2.5 mg/kg; type: functional
Rattus norvegicus [9] = species on record: Rattus norvegicus; experiment: Compound was tested for inhibition of [3H]norepinephrine against rat whole brain using in vitro biogenic amine uptake assay using rat brain synaptosomes.; type: functional
Mus musculus [10] = experiment: Antagonistic activity against scopolamine-induced behavioral deficits in mice by subcutaneous administration at a concentration of 0.63 mg/kg; type: functional
[11] = target: Muscarinic acetylcholine receptor; experiment: Inhibition of radioligand [3H]QNB binding to muscarinic acetylcholine receptor in the rat forebrain in the presence of zinc

Work on C=Cc1cccn1N(C)c1ccncc1 yielded an ED50 (Mus musculus [1]) of 8.3 mg/kg, a pIC50 [2] of 5.29 and a Response (Mus musculus [3]) of 33%. For the same compound, the IC50 [4] was 0.95 µM, the Response (Mus musculus [5]) was 27% and the Response (Mus musculus [6]) was 33%. The pIC50 (Rattus norvegicus [7]) was under 4.70, the pIC50 (Acetylcholinesterase) was under 4.00 and the Response (Mus musculus [8]) was 27%. The pIC50 (Rattus norvegicus [9]) was 4.85, the Response (Mus musculus [10]) was 33% and the IC50 [11] was 18 µM.
